Data published in ChEMBL document CHEMBL1909046, “DrugMatrix in vitro pharmacology data”.

Key:
Cytochrome P450 2D6 = Cytochrome P450 2D6 (Homo sapiens, UniProt P10635); details: bti-tn-5b1-4; note: in other assays of this panel Not Active means under 50% inhibition at 10 µM
Cathepsin G = target: T1, Cathepsin G (Homo sapiens, UniProt P08311); assay type: tissue-based; details: neutrophil;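 note: inhibition of Cathepsin G enzyme activity, tested on an AMC-conjugated peptide substrate; in other assays of this panel Not Active means under 50% inhibition at 10 µM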
T1 sequence (P08311 whole entry): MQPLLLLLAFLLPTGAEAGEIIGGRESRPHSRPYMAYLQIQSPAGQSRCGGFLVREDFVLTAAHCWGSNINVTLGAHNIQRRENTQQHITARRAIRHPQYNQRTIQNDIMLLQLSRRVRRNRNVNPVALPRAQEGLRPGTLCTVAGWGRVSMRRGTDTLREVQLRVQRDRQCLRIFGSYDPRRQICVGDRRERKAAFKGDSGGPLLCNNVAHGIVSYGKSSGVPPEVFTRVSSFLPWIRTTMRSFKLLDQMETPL

Thromboxane-A synthase = target: T2, Thromboxane-A synthase (Homo sapiens, UniProt P24557); assay: biochemical; assay type: tissue-based, Platelet; details: platelet;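 note: enzyme inhibition assay with PGH2 supplied as substrate; in other assays of this panel Not Active means under 50% inhibition at 10 µM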
T2 sequence (P24557 whole entry): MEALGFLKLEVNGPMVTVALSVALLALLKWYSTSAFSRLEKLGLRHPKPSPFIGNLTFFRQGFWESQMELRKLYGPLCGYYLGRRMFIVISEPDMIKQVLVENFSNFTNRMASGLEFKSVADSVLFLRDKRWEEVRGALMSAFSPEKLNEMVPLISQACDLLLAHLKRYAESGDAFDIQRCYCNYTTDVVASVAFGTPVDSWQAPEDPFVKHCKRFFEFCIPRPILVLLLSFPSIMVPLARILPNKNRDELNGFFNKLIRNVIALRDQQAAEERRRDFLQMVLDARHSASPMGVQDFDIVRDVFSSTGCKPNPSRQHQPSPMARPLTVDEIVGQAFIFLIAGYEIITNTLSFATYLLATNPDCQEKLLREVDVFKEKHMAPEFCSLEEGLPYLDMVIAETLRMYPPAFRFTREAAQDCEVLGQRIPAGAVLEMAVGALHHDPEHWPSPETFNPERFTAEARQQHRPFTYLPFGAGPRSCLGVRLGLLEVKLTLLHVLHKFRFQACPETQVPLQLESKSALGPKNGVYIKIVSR

[1] = target: Voltage-gated inwardly rectifying potassium channel KCNH2 (Homo sapiens, UniProt Q12809); details: hek293; note: in other assays of this panel Not Active means under 50% inhibition at 10 µM
Voltage-gated inwardly rectifying potassium channel KCNH2, sequence (Q12809 whole entry): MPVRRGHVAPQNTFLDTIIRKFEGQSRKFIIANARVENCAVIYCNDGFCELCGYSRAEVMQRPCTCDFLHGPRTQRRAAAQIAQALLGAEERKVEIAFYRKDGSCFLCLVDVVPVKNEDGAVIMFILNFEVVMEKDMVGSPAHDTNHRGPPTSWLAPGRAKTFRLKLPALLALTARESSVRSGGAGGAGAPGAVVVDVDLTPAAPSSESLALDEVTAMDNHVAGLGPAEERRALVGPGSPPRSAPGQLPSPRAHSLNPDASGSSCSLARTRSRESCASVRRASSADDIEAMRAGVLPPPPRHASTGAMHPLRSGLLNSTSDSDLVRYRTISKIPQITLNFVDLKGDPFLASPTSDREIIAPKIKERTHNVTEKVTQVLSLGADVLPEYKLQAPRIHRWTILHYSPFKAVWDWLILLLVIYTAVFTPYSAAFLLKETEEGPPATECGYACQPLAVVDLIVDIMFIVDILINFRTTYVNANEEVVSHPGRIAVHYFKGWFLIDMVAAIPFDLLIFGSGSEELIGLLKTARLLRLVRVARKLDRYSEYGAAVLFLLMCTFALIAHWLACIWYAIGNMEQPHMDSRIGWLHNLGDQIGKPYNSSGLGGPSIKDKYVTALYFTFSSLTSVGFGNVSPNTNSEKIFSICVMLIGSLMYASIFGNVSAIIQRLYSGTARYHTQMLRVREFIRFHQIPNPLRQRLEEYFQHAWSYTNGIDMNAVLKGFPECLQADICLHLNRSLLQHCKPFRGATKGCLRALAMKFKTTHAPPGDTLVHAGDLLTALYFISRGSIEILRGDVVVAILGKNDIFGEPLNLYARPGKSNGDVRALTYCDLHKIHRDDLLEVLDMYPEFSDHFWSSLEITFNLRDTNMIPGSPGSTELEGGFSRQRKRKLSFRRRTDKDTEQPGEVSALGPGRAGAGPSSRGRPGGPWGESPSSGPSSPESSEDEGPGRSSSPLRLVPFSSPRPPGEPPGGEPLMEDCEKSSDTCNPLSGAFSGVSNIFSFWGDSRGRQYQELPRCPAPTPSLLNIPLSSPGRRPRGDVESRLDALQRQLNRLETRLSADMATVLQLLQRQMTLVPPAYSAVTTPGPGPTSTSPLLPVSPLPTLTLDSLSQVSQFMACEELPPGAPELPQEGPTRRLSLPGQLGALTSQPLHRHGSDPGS

[2] = DRUGMATRIX: Nicotinic Acetylcholine radioligand binding (ligand: [125I] Epibatidine); assay type: cell membranes, Membrane; details: imr-32; Not Active = under 50% inhibition at 10 µM
[3] = target: Epidermal growth factor receptor (Homo sapiens, UniProt P00533); assay: DRUGMATRIX: Protein Tyrosine Kinase, EGF Receptor enzyme inhibition (substrate: Poly(Glu:Tyr)); assay type: cell-based, Insect cells; details: insect cells; Not Active = under 50% inhibition at 10 µM
Epidermal growth factor receptor, sequence (P00533 whole entry): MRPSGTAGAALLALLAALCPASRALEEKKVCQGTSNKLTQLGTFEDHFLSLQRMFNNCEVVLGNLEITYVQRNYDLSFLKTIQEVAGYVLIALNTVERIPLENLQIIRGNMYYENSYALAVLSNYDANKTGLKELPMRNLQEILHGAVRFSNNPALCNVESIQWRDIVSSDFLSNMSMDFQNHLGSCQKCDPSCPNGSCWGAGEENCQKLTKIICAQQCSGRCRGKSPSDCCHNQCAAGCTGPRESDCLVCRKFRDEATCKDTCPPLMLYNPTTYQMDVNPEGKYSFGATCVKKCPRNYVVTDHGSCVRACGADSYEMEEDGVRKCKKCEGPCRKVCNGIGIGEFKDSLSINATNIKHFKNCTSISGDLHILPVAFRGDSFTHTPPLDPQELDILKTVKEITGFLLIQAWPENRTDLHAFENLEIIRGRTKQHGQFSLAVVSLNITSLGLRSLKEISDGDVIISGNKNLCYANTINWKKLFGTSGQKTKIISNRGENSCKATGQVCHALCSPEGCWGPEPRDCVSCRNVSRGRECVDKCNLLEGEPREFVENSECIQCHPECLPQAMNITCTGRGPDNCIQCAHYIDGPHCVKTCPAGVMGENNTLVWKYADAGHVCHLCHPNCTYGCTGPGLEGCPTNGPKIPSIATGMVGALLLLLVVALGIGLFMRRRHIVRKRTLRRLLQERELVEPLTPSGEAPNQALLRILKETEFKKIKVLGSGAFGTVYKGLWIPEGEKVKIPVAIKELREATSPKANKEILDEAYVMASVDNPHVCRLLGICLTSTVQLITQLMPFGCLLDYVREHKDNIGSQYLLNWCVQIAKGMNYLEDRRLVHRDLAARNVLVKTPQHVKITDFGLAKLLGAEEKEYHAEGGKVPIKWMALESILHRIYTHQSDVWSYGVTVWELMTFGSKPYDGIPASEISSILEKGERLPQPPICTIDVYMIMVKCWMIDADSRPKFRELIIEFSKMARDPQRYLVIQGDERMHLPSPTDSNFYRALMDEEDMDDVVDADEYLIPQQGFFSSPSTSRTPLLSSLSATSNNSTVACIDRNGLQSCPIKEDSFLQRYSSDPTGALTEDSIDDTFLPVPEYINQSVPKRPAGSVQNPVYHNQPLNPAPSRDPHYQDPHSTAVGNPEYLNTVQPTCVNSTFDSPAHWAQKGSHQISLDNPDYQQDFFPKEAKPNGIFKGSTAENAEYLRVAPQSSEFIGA

[4] = target: Protein kinase C alpha type (Homo sapiens, UniProt P17252); assay type: cell-based; details: sf9
[5] = target: T3, Neuropeptide Y receptor type 2 (Homo sapiens, UniProt P49146); assay type: cell membranes, Membrane; details: kan-ts; note: in other assays of this panel Not Active means under 50% inhibition at 10 µM
T3 sequence (P49146 whole entry): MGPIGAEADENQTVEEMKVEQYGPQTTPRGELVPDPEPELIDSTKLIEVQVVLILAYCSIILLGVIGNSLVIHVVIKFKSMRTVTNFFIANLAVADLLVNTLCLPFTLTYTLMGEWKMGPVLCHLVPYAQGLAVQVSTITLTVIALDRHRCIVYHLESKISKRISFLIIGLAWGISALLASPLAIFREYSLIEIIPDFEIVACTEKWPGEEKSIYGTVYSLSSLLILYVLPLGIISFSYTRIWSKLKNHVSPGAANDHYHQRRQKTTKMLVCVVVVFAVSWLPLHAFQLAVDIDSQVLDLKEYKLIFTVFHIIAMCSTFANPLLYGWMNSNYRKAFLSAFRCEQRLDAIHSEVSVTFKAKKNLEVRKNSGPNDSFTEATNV

Cytochrome P450 2D6, sequence (P10635 whole entry): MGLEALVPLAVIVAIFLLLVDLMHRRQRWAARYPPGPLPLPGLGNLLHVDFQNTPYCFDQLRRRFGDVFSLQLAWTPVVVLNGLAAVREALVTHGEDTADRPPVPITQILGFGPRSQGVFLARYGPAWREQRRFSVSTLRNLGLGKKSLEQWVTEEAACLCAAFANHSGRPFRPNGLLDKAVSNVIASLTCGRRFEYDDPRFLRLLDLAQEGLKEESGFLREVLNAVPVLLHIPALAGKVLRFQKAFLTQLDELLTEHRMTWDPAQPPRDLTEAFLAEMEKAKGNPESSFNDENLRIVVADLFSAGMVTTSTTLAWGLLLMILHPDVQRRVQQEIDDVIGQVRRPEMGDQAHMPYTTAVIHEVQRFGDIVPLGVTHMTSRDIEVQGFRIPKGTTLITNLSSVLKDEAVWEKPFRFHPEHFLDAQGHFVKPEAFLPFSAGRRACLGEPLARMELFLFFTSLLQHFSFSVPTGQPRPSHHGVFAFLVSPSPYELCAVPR

CN1CCN(c2c(F)cc3c(=O)c(C(=O)O)cn(CCF)c3c2F)CC1 [FLEROXACIN]
Not Active: IC50 (Cytochrome P450 2D6) | Ki (Cytochrome P450 2D6) | IC50 (Cathepsin G) | IC50 (Thromboxane-A synthase) | IC50 [1] | Ki [1] | IC50 [2] | Ki [2] | IC50 [3] | IC50 [4] | IC50 [5]

O=c1[nH]c(=O)n([C@H]2C[C@H](O)[C@@H](CO)O2)cc1F [FLOXURIDINE]
Not Active: IC50 (Cytochrome P450 2D6) | Ki (Cytochrome P450 2D6) | IC50 (Cathepsin G) | IC50 (Thromboxane-A synthase) | IC50 [1] | Ki [1] | IC50 [2] | Ki [2] | IC50 [3] | IC50 [4] | IC50 [5]

COC(=O)Nc1nc2cc(C(=O)c3ccc(F)cc3)ccc2[nH]1 [FLUBENDAZOLE]
Not Active: IC50 (Cytochrome P450 2D6) | Ki (Cytochrome P450 2D6) | IC50 (Cathepsin G) | IC50 (Thromboxane-A synthase) | IC50 [1] | Ki [1] | IC50 [2] | Ki [2] | IC50 [3] | IC50 [4] | IC50 [5]

CC(=O)OCC(=O)[C@@]1(O)CC[C@H]2[C@@H]3CCC4=CC(=O)CC[C@]4(C)[C@@]3(F)[C@@H](O)C[C@@]21C [FLUDROCORTISONE ACETATE]
Not Active: IC50 (Cytochrome P450 2D6) | Ki (Cytochrome P450 2D6) | IC50 (Cathepsin G) | IC50 (Thromboxane-A synthase) | IC50 [1] | Ki [1] | IC50 [2] | Ki [2] | IC50 [3] | IC50 [4] | IC50 [5]

CCOC(=O)c1ncn2c1CN(C)C(=O)c1cc(F)ccc1-2 [FLUMAZENIL]
Not Active: IC50 (Cytochrome P450 2D6) | Ki (Cytochrome P450 2D6) | IC50 (Cathepsin G) | IC50 (Thromboxane-A synthase) | IC50 [1] | Ki [1] | IC50 [2] | Ki [2] | IC50 [3] | IC50 [4] | IC50 [5]

O=C(O)P(=O)(O)O [FOSCARNET]
Not Active: IC50 (Cytochrome P450 2D6) | Ki (Cytochrome P450 2D6) | IC50 (Cathepsin G) | IC50 (Thromboxane-A synthase) | IC50 [1] | Ki [1] | IC50 [2] | Ki [2] | IC50 [3] | IC50 [4] | IC50 [5]

Cc1ccc(C)c(OCCCC(C)(C)C(=O)O)c1 [GEMFIBROZIL]
Not Active: IC50 (Cytochrome P450 2D6) | Ki (Cytochrome P450 2D6) | IC50 (Cathepsin G) | IC50 (Thromboxane-A synthase) | IC50 [1] | Ki [1] | IC50 [2] | Ki [2] | IC50 [3] | IC50 [4] | IC50 [5]

CCC1=C(C)CN(C(=O)NCCc2ccc(S(=O)(=O)NC(=O)N[C@H]3CC[C@H](C)CC3)cc2)C1=O [GLIMEPIRIDE]
Not Active: IC50 (Cytochrome P450 2D6) | Ki (Cytochrome P450 2D6) | IC50 (Cathepsin G) | IC50 (Thromboxane-A synthase) | IC50 [1] | Ki [1] | IC50 [2] | Ki [2] | IC50 [3] | IC50 [4] | IC50 [5]

Nc1cc(-c2ccncc2)c[nH]c1=O [INAMRINONE]
Not Active: IC50 (Cytochrome P450 2D6) | Ki (Cytochrome P450 2D6) | IC50 (Cathepsin G) | IC50 (Thromboxane-A synthase) | IC50 [1] | Ki [1] | IC50 [2] | Ki [2] | IC50 [3] | IC50 [4] | IC50 [5]

CCCCC1=NC2(CCCC2)C(=O)N1Cc1ccc(-c2ccccc2-c2nnn[nH]2)cc1 [IRBESARTAN]
Not Active: IC50 (Cytochrome P450 2D6) | Ki (Cytochrome P450 2D6) | IC50 (Cathepsin G) | IC50 (Thromboxane-A synthase) | IC50 [1] | Ki [1] | IC50 [2] | Ki [2] | IC50 [3] | IC50 [4] | IC50 [5]

CN1CCC(=C2c3ccccc3CC(=O)c3sccc32)CC1 [KETOTIFEN]
Not Active: IC50 (Cytochrome P450 2D6) | Ki (Cytochrome P450 2D6) | IC50 (Cathepsin G) | IC50 (Thromboxane-A synthase) | IC50 [1] | Ki [1] | IC50 [2] | Ki [2] | IC50 [3] | IC50 [4] | IC50 [5]

C[N+](C)(C)C[C@H](O)CC(=O)[O-] [LEVOCARNITINE]
Not Active: IC50 (Cytochrome P450 2D6) | Ki (Cytochrome P450 2D6) | IC50 (Cathepsin G) | IC50 (Thromboxane-A synthase) | IC50 [1] | Ki [1] | IC50 [2] | Ki [2] | IC50 [3] | IC50 [4] | IC50 [5]

C[C@H]1COc2c(N3CCN(C)CC3)c(F)cc3c(=O)c(C(=O)O)cn1c23.C[C@H]1COc2c(N3CCN(C)CC3)c(F)cc3c(=O)c(C(=O)O)cn1c23.O [LEVOFLOXACIN]
Not Active: IC50 (Cytochrome P450 2D6) | Ki (Cytochrome P450 2D6) | IC50 (Cathepsin G) | IC50 (Thromboxane-A synthase) | IC50 [1] | Ki [1] | IC50 [2] | Ki [2] | IC50 [3] | IC50 [4] | IC50 [5]

CN1CCCC(CN2c3ccccc3Sc3ccccc32)C1 (stereo not given) [MEPAZINE]
Not Active: IC50 (Cytochrome P450 2D6) | Ki (Cytochrome P450 2D6) | IC50 (Cathepsin G) | IC50 (Thromboxane-A synthase) | IC50 [1] | Ki [1] | IC50 [2] | Ki [2] | IC50 [3] | IC50 [4] | IC50 [5]

Cc1cccc(C)c1NC(=O)C1CCCCN1C (stereo not given) [MEPIVACAINE]
Not Active: IC50 (Cytochrome P450 2D6) | Ki (Cytochrome P450 2D6) | IC50 (Cathepsin G) | IC50 (Thromboxane-A synthase) | IC50 [1] | Ki [1] | IC50 [2] | Ki [2] | IC50 [3] | IC50 [4] | IC50 [5]
